Values joined by “and” are separate entries in the source; they are usually repeats but may differ in a detail not shown here. Equal entries are not always repeated. “Also recorded” adds a separate entry of the source. Where two headings read alike, the source gives them in different places.
Experiments:
[1] = system: photoreceptors; settings: rat, in vivo, iv; for Incidences (#affected/total): male, Sprague-Dawley, 2 days
[2] = system: HER2 in BT-474 cells; assay: HER2 degradation assay (anti-HER2 FITC flow cytometry); type: cell-based; settings: 24 h treatment
Method: HER2 positive cells were determined using anti-HER2 conjugated FITC (BD, 540553) according to manufacturer's instruction (BD Biosciences). 0.2×10^6 BT-474 cells were plated in 12-well culture plates in Dulbecco's Modified Eagle's Medium containing 10% fetal bovine serum and 1.5 g/L sodium bicarbonate. Cells were treated with the indicated compounds over a 10-1000 nM concentration range for 24 h. Cells were collected and stained with a FITC-conjugated anti-HER2 antibody for 30 min at room temperature. HER2-positive cells (fluorescence intensity) were determined by flow cytometry (excitation at 495 nm and emission at 529 nm) using a Becton Dickinson LSRII equipped with CellQuest Pro software. […]

[3] = for Elimination from the retina (in words) / Retina/plasma (R/P) ratio (in words): rats; for Retina/plasma (R/P) ratio (in words): 6 h post-dose
[4] = in vivo; settings: male, Sprague-Dawley, rat, iv; for Kp at 0.5 h / Kp at 6 h: in vivo
[5] = in vivo; settings: male, Sprague-Dawley, rat, iv
[6] = system: photoreceptors; assay: Photoreceptor degeneration/apoptosis in rat eyes (H&E, TUNEL) after i.v. dosing; settings: for Photoreceptor degeneration (in words) / Ocular toxicity / photoreceptor injury in rats (in words): rats; for Ocular toxicity / photoreceptor injury in rats (in words): short-term studies
[7] = phase I trials, clinical reports, cited from earlier work
[8] = system: retina; settings: repeated doses; cited from earlier work
[9] = SD rats, all testing doses of the compound, i.v.
[10] = male, Sprague-Dawley, rat, in vivo, iv, 2 days
[11] = male, Sprague-Dawley, rat, in vivo, iv
[12] = male, Sprague-Dawley, rat, in vivo, iv, 0.5 h
[13] = male, Sprague-Dawley, rat, in vivo, iv, 6 h
[14] = SD rats, i.v., between 0.5 and 6 h post-dose
[15] = SD rats, i.v., Day 2, 0.5 h, mg/kg: AUY922 10, 17-DMAG 20, Compound 1 50, 17-AAG 80
[16] = SD rats, i.v., Day 2, 6 h, mg/kg: AUY922 10, 17-DMAG 20, Compound 1 50, 17-AAG 80
[17] = SD rats, 8, 20, 60, 100/80 mg/kg/d x2, i.v.

CC(C)c1cc(C(=O)N2Cc3ccc(CN4CCN(C)CC4)cc3C2)c(O)cc1O [AT-13387]
Incidences (#affected/total) ([1]; 3 mg/kg/day): 6/6 | Incidences (#affected/total) ([1]; 30 mg/kg/day): 0/3 | Incidences (#affected/total) ([1]; 60 mg/kg/day): 2/3 | Mortality (in-house study) [9]: 0/9 | Other findings (in-house study) [10]: ↓ Body weight gain

CCNC(=O)c1noc(-c2cc(C(C)C)c(O)cc2O)c1-c1ccc(CN2CCOCC2)cc1 [AUY-922]
IC50 [2]: < 30 nM | IC50 ([2]; Homo sapiens, BT-474, 24 h): 30 nM | Incidences (#affected/total) ([1]; 3 mg/kg/day): 0/3 | Incidences (#affected/total) ([1]; 60 mg/kg/day): 3/3 | Ocular toxicity / photoreceptor injury in rats (in words) [1]: most severe ocular effects | TUNEL [1]: +-++ | Toxicity: mortality (SD rats, 3-60 mg/kg i.v., in 2-3 days post-dose): No mortality | Mortality (in-house study) [9]: 0/12 | Other findings (in-house study) [10]: tail edema | Other findings (in-house study) (rat, in vivo, iv): ↓ Body weight gain) | Retina % remain at 6 h of drug present at 0.5 h [3, 11]: (53.5) % | Retina %↓ 0.5-6 h (drug eliminated from retina) [3, 11]: 46.5% | Plasma concentration [3, 12]: 1120 nM | Retina concentration [3, 12]: 4.75 µM | Plasma concentration [3, 13]: 15.4 nM | Retina concentration [3, 13]: 2.54 µM | Kp at 0.5 h [4]: 4.24 | Kp at 6 h [4]: 165

CC(C)c1cc(-c2nnc(S)n2-c2ccc3c(ccn3C)c2)c(O)cc1O [Compound 1, 4-isopropyl-6-(5-mercapto-4-(1-methyl-1H-indol-5-yl)-4H-1,2,4-triazol-3-yl)benzene-1,3-diol]
IC50 ([2]; Homo sapiens, BT-474, 24 h): 60 nM | Mortality (in-house study) [10]: 0/15 | Other findings (in-house study) (rat, in vivo, 100 mg/kg): (ECG change | Retina %↓ 0.5-6 h (drug eliminated from retina) [3, 14]: 78.5% | Retina %↓ 0.5-6 h (drug eliminated from retina) ([3]; SD rats, i.v., between 0.5 and 6 h post-dose, listed as compound 1): 79% | MTD [5]: 100 mg/kg | concentration at 0.5 h ([4]; cerebrospinal fluid): 19.4 nM | concentration at 0.5 h ([4]; plasma): 19500 nM | concentration at 6 h ([4]; plasma): 104 nM | concentration at 0.5 h ([4]; retina): 10400 nM | concentration at 6 h ([4]; retina): 2240 nM | Incidences (#affected/total) ([6]; SD rats, 10 mg/kg/d x2, i.v.): 0/3 | Severity (TUNEL + area & density) ([6]; SD rats, 10 mg/kg/d x2, i.v.): (−) ((−) ≦ 20 cells/section) | Incidences (#affected/total) ([6]; SD rats, 20 mg/kg/d x2, i.v.): 0/3 | Severity (TUNEL + area & density) ([6]; SD rats, 20 mg/kg/d x2, i.v.): (−) ((−) ≦ 20 cells/section) | Incidences (#affected/total) ([6]; SD rats, 30 mg/kg/d x2, i.v.): 0/3 | Severity (TUNEL + area & density) ([6]; SD rats, 30 mg/kg/d x2, i.v.): (−) (1/3±, 22 ((−) ≦ 20 cells/section) | Photoreceptor degeneration/apoptosis ([6]; SD rats, 50 mg/kg i.v.): (±) | Incidences (#affected/total) ([6]; SD rats, 50 mg/kg/d x2, i.v.): 3/3 | Severity (TUNEL + area & density) ([6]; SD rats, 50 mg/kg/d x2, i.v.): (±) ((±) 21-30 cells/section) | Incidences (#affected/total) ([6]; SD rats, 100 mg/kg/d x2, i.v.): 3/3 | Photoreceptor degeneration/apoptosis ([6]; SD rats, 10, 20, 30 mg/kg i.v.): (−) ((−) ≦20 cells/section) | Photoreceptor degeneration (in words) ([6]; doses active in animal tumor models): Photoreceptor degeneration was not observed | Photoreceptor degeneration (in words) ([6]; higher dose(s)): only minimal degeneration; also recorded: only minimal-mild changes | Ocular toxicity / photoreceptor injury in rats (in words) ([6]; i.v.): Mild or no ocular toxicity

C=CCNC1=C2C[C@@H](C)C[C@H](OC)[C@H](O)[C@@H](C)/C=C(\C)[C@H](OC(N)=O)[C@@H](OC)/C=C\C=C(/C)C(=O)NC(=CC1=O)C2=O [Compound 17-AAG]
IC50 [2]: 100 to 150 nM | Mortality (in-house study) (SD rats, 100 mg/kg in 5 min): 1/3; 100 mg/kg in 5 min, | Mortality (in-house study) (SD rats, 120 mg/kg in 5 min): 1/1: 120 mg/kg in 5 min. | Toxicity: Mortality (dose) (SD rats, i.v.): 100 mg/kg | CSF concentration [3, 15]: 0.434 µM | Plasma concentration [3, 15]: 26500 nM | R/P ratio (retina/plasma) [3, 15]: 1.70 | Retina concentration [3, 15]: 45.1 µM | CSF concentration [3, 16]: 0.00433 µM | Plasma concentration [3, 16]: 262 nM | R/P ratio (retina/plasma) [3, 16]: 9.58 | Retina concentration [3, 16]: 2.51 µM | Retina % remain at 6 h of drug present at 0.5 h [3, 14]: (5.6) % | Retina %↓ 0.5-6 h (drug eliminated from retina) [3, 14]: 94% and 94.4% | Elimination from the retina (in words) [3]: more rapidly eliminated from the retina | Retina/plasma (R/P) ratio (in words) [3]: lower R/P ratios; also recorded: low R/P ratio | Visual adverse effects in clinical trials / clinical subjects [7]: absence of clinically-reported visual changes | Photoreceptor degeneration/apoptosis ([6]; SD rats, 8, 20, 60 mg/kg i.v.): (−) ((−) ≦20 cells/section) | Incidences (#affected/total) [6, 17]: 0/10 | Severity (TUNEL + area & density) [6, 17]: (−) ((−) ≦ 20 cells/section) | Photoreceptor degeneration/apoptosis ([6]; SD rats, 80 (100) mg/kg i.v.): (−) ((−) ≦20 cells/section) | TUNEL ([6]; SD rats, i.v., mg/kg: AUY922 10, 17-DMAG 20, Compound 1 50, 17-AAG 80): (−) ((−) ≦ 20 cells/section) | Ocular toxicity / photoreceptor injury in rats (in words) ([6]; i.v.): Mild or no ocular toxicity; also recorded: absence of ocular effects; also recorded: did not produce detectable photoreceptor injury; also recorded: did not induce ocular toxicity in rats

CO[C@H]1/C=C\C=C(/C)C(=O)NC2=CC(=O)C(NCCN(C)C)=C(C[C@@H](C)C[C@H](OC)[C@H](O)[C@@H](C)/C=C(\C)[C@@H]1OC(N)=O)C2=O [Compound 17-DMAG]
IC50 ([2]; Homo sapiens): 60 nM | Mortality (in-house study) (SD rats, 25 mg/kg/d x3, 72 hrs): 3/3 @ 25 | Toxicity: Mortality (dose) (SD rats, i.v., x 3 days): 25 mg/kg/dx | CSF concentration [3, 15]: 0.0799 µM | Plasma concentration [3, 15]: 4710 nM | Retina concentration [3, 15]: 32.0 µM | CSF concentration [3, 16]: 0.00376 µM | Plasma concentration [3, 16]: 317 nM | Retina concentration [3, 16]: 16.2 µM | Retina %↓ 0.5-6 h (drug eliminated from retina) [3, 14]: 49.4% | Elimination from the retina (in words) [3]: longer retention time; also recorded: slow elimination rate | Retina/plasma (R/P) ratio (in words) [3]: high retina/plasma (R/P) ratio | Visual adverse effects in clinical trials / clinical subjects ([7]; listed as alvespimycin): Visual symptoms, including blurred vision | Kp at 0.5 h [4]: 6.79 | Kp at 6 h [4]: 51.1 | Incidences (#affected/total) ([6]; SD rats, 10 mg/kg/d x2, i.v.): 3/3 | Incidences (#affected/total) ([6]; SD rats, 20, 25 mg/kg/d x2, i.v.): 6/6 | Ocular toxicity / photoreceptor injury in rats (in words) ([6]; i.v.): marked photoreceptor cell death; also recorded: produced ocular toxicity

CC1(C)CC(=O)c2c(C(F)(F)F)nn(-c3ccc(C(N)=O)c(N[C@H]4CC[C@H](OC(=O)CN)CC4)c3)c2C1 [PF-04929113]
Retinal injury in dogs [8]: photoreceptor degeneration and/or cell death

— patent publication US8628752B2, “Methods of identifying HSP90 inhibitors with less ocular toxicity” (Synta Pharmaceuticals Corp., priority 2011, dated 2014)
